# Measured values published in US20090062130A1, “NUCLEOSOME-BASED BIOSENSOR” (UNIVERSITY OF PITTSBURGH - OF THE COMMONWEALTH SYSTEM OF …, priority 2006, published 2009).
# Columns and labels:
# [1] = system: ER; conditions: ligand plus estrogen receptor plus Brg1 complex
# Method: To reconstitute specific chromatin remodeling in vitro, one would co-incubate wild type or mutant ERE-containing nucleosomes with E2/ER or ICI/ER as in D2.2a. Equimolar Brg1, obtainable from Jena Biosciences (Dortmund, Germany), would be added and measurement would be made of the FRET loss that is specific to wt ERE-containing nucleosomes in a buffer of 12 mM HEPES, pH 7.9, 60 mM KCl, 15% glycerol, catalase, 10 mM DTT, 2 mM MgCl2, 4 mM ATP, 0.4% (w/v) glucose, 0.1 mg/ml glucose oxidase, and 0.02 mg/ml catalase. In the absence of measurable FRET loss, Flag-tagged BAF57, BAF155 and BAF170 could 1 be added in a 2:1 ratio, relative to Brg1, in keeping with observations in publication 69. Ligand-dependent measurement of FRET loss would be monitored.
# The remodeling reaction is expected to be ATP-dependent. This would be tested by ATP deletion in relation to incubation conditions that had decreased FRET. Also, initial validation of reagents would be effected done through measurement of micrococcal nuclease sensitivity of the mononucleosome bound DNA.
# [2] = system: ER; conditions: recombinant protein system, equimolar estrogen, ICI, tamoxifen, cholesterol
# From the text: Use of a recombinant protein system would be preferred to use of cell extracts in this context. A recombinant protein system would facilitate modulation of component stoichiometries.
# Chain of ER (P03372 whole entry): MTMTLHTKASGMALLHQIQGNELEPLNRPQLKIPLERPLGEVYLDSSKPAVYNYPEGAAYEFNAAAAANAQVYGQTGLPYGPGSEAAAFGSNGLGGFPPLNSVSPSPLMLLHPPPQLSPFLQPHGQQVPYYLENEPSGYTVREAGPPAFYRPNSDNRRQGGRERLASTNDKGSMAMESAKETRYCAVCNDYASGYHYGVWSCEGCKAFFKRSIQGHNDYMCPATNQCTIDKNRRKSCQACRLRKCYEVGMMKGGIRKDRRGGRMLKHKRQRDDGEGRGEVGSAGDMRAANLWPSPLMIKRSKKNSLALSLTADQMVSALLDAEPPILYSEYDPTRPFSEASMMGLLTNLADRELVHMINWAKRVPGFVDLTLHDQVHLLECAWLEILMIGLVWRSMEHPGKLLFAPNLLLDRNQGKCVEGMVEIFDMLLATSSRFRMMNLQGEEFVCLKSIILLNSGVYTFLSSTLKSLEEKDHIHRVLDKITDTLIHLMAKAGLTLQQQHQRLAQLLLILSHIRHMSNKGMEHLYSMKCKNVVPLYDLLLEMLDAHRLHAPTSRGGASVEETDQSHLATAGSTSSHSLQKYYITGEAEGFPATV
Compound,loss of FRET signal [1],distribution of ligand into sorted pools [2]
"C[C@]12CC[C@@H]3c4ccc(O)cc4C[C@@H](CCCCCCCCC[S+]([O-])CCCC(F)(F)C(F)(F)F)[C@H]3[C@@H]1CC[C@@H]2O (stereo partly shown) [ICI, ICI182780]",negative controls,
CC(C)CCC[C@@H](C)[C@H]1CC[C@H]2[C@@H]3CC=C4C[C@@H](O)CC[C@]4(C)[C@H]3CC[C@]12C [cholesterol],negative controls,would not be carried forward through the sort
Vitamin D3,negative controls,
